Several values for one entry are separate records, joined by “and”; a condition that tells them apart may be missing. Identical values can stand only once.
Key:
[1] = tested on: Mouse colon cancer CT26 cells; assay: Proliferation of CT26 cells, CCK8, MRTX1133 with or without IN10018 (Example 3); format: cell-based; conditions: 72 hours, combination group: 5 μM IN10018 added to each well
Procedure: (§1) Mouse colon cancer CT26 cells (Insitute of Biochemistry and Cell Biology) were cultured with RPMI-1640 (Shanghai Basalmedia, classification number: L210KJ, batch number: F210916)+10% FBS (Gibco, classification number: 10099-141c, batch number: 2158737cp) and passaged twice. When the cells were in good condition, the culture solution was placed in a 96-well plate with 3000 cells/well. After the cells were spread for 24 hours, a culture medium containing MRTX1133 (SuperLan Chemical Co., Ltd., classification number: P2621928-55-8, batch number: 131005) was added. 10 drug action concentrations were set, wherein the first concentration was 30 μM, which was serially diluted 5 times, and the last concentration was a control with a drug concentration of 0. Each drug concentration was set in triplicate. At the same time, another group of cells was established with the same drug concentration as the above method. The difference was that 5 μM IN10018 was added to each well. The drugs were mixed and the mixture was cultured in a 5% CO2 incubator at 37° C. for 72 hours.
(§2) After 72 hours of drug action, the cells were observed under a microscope, and 10 μl of CCK8 detection reagent (Cellorlab, classification number: CX001M, batch number: 2571100) was added to each well. […] Then the plate was read with a microplate reader OD450 ([…]).

[2] = tested on: Mouse lung cancer KPL; assay: Proliferation of KPL cells, CCK8, MRTX1133 with or without IN10018 (Example 5); format: cell-based; conditions: 72 hours, MRTX1133 alone
Procedure: as §1, with “Mouse lung” for “Mouse colon”, “cancer KPL” for “cancer CT26 cells”, “that 10” for “that 5”
as §2

[3] = Weight change, survival and clinical status in the CT26 allograft model (Example 9); format: in vivo
Procedure: The health status and death of animals was monitored every day. Routine examination included observing the effects of tumor growth and drug treatment on the daily behavior of animals, such as behavioral activities, food and water intake (visual observation only), body weight change, appearance signs or other abnormal conditions. Based on the number of animals in each group, the death number and side effects of animals in the group were recorded.
The assay was carried out according to the administration scheme. During the assay, animal activities such as eating and drinking were observed daily, and animal weight was recorded 2˜3 times a week. […] The body weight of the three-drug combined group of MRTX1133+IN10018+TIGIT (5+25+3 mg/kg) group changed from 19.5 g on the day of group administration (Day 0) to 21.2 g on the 16th day, and the change rate of body weight was […].

[4] = Body weight / tolerability of KPL tumor-bearing mice (Example 12); format: in vivo; conditions: KPL tumor-bearing C57BL/6 mice
Procedure: All the procedures related to animal handling, care and the treatment in the study were conducted according to guidelines approved by the Institutional Animal Care and Use Committee (IACUC) following the guidance of the Association for Assessment and Accreditation of Laboratory Animal Care (AAALAC). At the time of routine monitoring, the animals were daily checked for any effects of tumor growth and treatments on normal behavior such as mobility, food and water consumption (by looking only), body weight gain/loss (body weights were measured every two days or twice weekly), eye/hair matting and any other abnormal effects as stated in the protocol. Death and observed clinical signs were recorded on the basis of the numbers of animals within each subset.
The body weight of KPL tumor-bearing mice was monitored regularly as an indirect index of toxicity.

C#Cc1c(F)ccc2cc(O)cc(-c3ncc4c(N5CC6CCC(C5)N6)nc(OC[C@@]56CCCN5C[C@H](F)C6)nc4c3F)c12 [MRTX1133]
IC50 [1]: 280 nM
IC50 [2]: 1760 nM
Weight on Day 0 ([3]; Day 0, at grouping, mean ± SD): 19.4 g and 19.4 ± 0.8 g
Weight change rate (%) ([3]; Day 16 vs Day 0): 15.1%
Weight on Day 14/16 ([3]; administration groups: 16th day after group administration, mean ± SD): 22.3 g and 22.3 ± 0.8 g
Animal survival ([3]; number of animals alive on day 0/number alive on day 16): 6/6
tolerability in KPL model [4]: well-tolerated
